From patent US9809537B2, “Glycosidase inhibitors and uses thereof” (Alectos Therapeutics Inc., priority 2012, dated 2017)

Experiments:
[1] = Apparent permeability (Papp), bi-directional transport; type: in vitro ADME; conditions: pig, LLC-PK1, t=3 h, average of A to B and B to A, read-out: Papp LLC-PK1 cells
Experimental: Assay for Determination of Apparent Permeability (Papp)
Bi-directional transport is evaluated in LLC-PK1 cells in order to determine apparent permeability (Papp). LLC-PK1 cells can form a tight monolayer and therefore can be used to assess vectorial transport of compounds from basolateral to apical (B→A) and from apical to basolateral (A→B).
To determine Papp, LLC-PK1 cells are cultured in 96-well transwell culture plates (Millipore). Solutions containing the test compounds (1 μM) are prepared in Hank's Balanced Salt Solution with 10 mM HEPES. Substrate solution (150 μL) is added to either the apical (A) or the basolateral (B) compartment of the culture plate, and buffer (150 μL) is added to the compartment opposite to that containing the compound. At t=3 h, 50 μL samples are removed from both sides of monolayers dosed with test compound and placed in 96 well plates, scintillant (200 μL) or internal standard (100 μL labetolol 1 μM) is added to the samples and concentration is determined by liquid scintillation counting in a MicroBeta Wallac Trilux scintillation counter (Perkin Elmer Life Sciences, Boston, Mass.) or by LCMS/MS (Applied Biosystems SCIEX API 5000 triple quadruple mass spectrometer). [^3H]Verapamil (1 μM) is used as the positive control. The experiment is performed in triplicate.
The apparent permeability, Papp, is calculated by the following formula for samples taken at t=3 h:
[formula] Where: Volume of Receptor Chamber is 0.15 mL; Area of membrane is 0.11 cm^2; the Initial Concentration is the sum of the concentration measured in the donor plus concentration measured in receiver compartments at t=3 h; A in Concentration is concentration in the receiver compartment at 3 h; and A in Time is the incubation time (3×60×60=10800 s). Papp is expressed as 10^−6 cm/s. The Papp (LLC-PK1 cells) are the average of the Papp for transport from A to B and Papp for transport from B to A at t=3 h: […]

human O-GlcNAcase = biological target: T1, human O-GlcNAcase (Homo sapiens, UniProt O60502); test: Fluorescence-based assay for KI values for inhibition of O-GlcNAcase activity; type: biochemical; conditions: purified human O-GlcNAcase, 4-methylumbelliferyl GlcNAc substrate, pH 7.0, Cheng-Prusoff; read-out: Fluorescence-based hOGA Ki
T1 sequence (O60502 1-916): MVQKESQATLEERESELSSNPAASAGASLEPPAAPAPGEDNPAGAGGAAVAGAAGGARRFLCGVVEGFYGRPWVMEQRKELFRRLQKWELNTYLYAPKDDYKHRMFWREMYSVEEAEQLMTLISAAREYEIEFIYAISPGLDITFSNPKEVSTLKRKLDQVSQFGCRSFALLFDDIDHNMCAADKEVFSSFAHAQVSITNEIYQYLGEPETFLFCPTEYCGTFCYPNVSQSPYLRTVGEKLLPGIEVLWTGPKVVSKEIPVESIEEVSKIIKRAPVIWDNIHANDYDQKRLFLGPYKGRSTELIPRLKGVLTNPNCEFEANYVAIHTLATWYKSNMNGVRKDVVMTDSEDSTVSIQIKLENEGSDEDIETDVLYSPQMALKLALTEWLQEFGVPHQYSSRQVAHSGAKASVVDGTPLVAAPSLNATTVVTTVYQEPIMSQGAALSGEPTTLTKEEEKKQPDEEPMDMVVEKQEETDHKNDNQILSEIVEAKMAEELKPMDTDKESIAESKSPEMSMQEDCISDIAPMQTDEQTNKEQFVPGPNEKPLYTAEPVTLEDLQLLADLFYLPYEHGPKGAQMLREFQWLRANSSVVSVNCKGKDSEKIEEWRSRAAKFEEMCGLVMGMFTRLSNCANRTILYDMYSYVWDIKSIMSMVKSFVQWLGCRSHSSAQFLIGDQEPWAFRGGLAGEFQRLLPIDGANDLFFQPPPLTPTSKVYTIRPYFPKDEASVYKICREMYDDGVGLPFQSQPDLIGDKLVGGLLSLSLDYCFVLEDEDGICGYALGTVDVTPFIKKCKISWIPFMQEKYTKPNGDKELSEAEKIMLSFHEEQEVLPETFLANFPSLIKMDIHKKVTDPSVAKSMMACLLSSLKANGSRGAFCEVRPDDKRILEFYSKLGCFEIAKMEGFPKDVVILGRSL
Experimental: Assay for Determination of KI Values for Inhibition of O-GlcNAcase Activity
Experimental Procedure for Kinetic Analyses:
Enzymatic reactions were carried out in a reaction containing 50 mM NaH2PO4, 100 mM NaCl and 0.1% BSA (pH 7.0) using 2 mM 4-Methylumbelliferyl N-acetyl-β-D-glucosaminide dihydrate (Sigma M2133) dissolved in ddH2O, as a substrate. The amount of purified human O-GlcNAcase enzyme used in the reaction was 0.7 nM. Test compound of varying concentrations was added to the enzyme prior to initiation of the reaction. The reaction was performed at room temperature in a 96-well plate and was initiated with the addition of substrate. The production of fluorescent product was measured every 60 sec for 45 min with a Tecan Infinite M200 plate-reader with excitation at 355 nm and emission detected at […], with 4-Methylumbelliferone (Sigma M1381) used to produce a standard curve. The slope of product production was determined for each concentration of compound tested and plotted, using standard curve fitting algorithms for sigmoidal dose response curves. The values for a four parameter logistic curve fit of the data were determined.
KI values were determined using the Cheng-Prusoff equation; the Km of O-GlcNAcase for substrate was 0.2 mM.

SMILES	Papp at 3 h, 1 μM [1] [×10⁻⁶ cm/s]	Ki (human O-GlcNAcase) [nM]
CC(=O)NC[C@@H]1[C@@H](O)[C@H](O)[C@@H](CO)N1CCCCc1ccccc1 [Example 5, N-(((2R,3R,4R,5R)-3,4-dihydroxy-5-(hydroxymethyl)-1-(4-phenylbutyl)pyrrolidin-2-yl)methyl)acetamide]	< 1.6	172
CC(=O)NC[C@@H]1[C@@H](O)[C@H](O)[C@@H](CO)N1Cc1cccnc1 [Example 7, N-(((2R,3R,4R,5R)-3,4-dihydroxy-5-(hydroxymethyl)-1-(pyridin-3-ylmethyl)pyrrolidin-2-yl)methyl)acetamide]		2690
CC(=O)NC[C@@H]1[C@@H](O)[C@H](O)[C@@H](CO)N1CCCc1ccccc1 [Example 1, N-(((2R,3R,4R,5R)-3,4-dihydroxy-5-(hydroxymethyl)-1-(3-phenylpropyl)pyrrolidin-2-yl)methyl)acetamide]		369
CC(=O)NC[C@@H]1[C@@H](O)[C@H](O)[C@@H](CO)N1CCc1ccc(-c2ccccc2)cc1 [Example 4, N-(((2R,3R,4R,5R)-1-(2-([1,1′-biphenyl]-4-yl)ethyl)-3,4-dihydroxy-5-(hydroxymethyl)pyrrolidin-2-yl)methyl)acetamide]	4.4	79
CC(=O)NC[C@@H]1[C@@H](O)[C@H](O)[C@@H](CO)N1CCC(c1ccccc1)c1ccccc1 [Example 6, N-(((2R,3R,4R,5R)-1-(3,3-diphenylpropyl)-3,4-dihydroxy-5-(hydroxymethyl)pyrrolidin-2-yl)methyl)acetamide]		41
COc1ccc(CCCN2[C@H](CO)[C@@H](O)[C@H](O)[C@H]2CNC(C)=O)cc1 [Example 2, N-(((2R,3R,4R,5R)-3,4-dihydroxy-5-(hydroxymethyl)-1-(3-(4-methoxyphenyl)propyl)pyrrolidin-2-yl)methyl)acetamide]	2.6	106
CC(=O)NC[C@@H]1[C@@H](O)[C@H](O)[C@@H](CO)N1Cc1ccccn1 [Example 8, N-(((2R,3R,4R,5R)-3,4-dihydroxy-5-(hydroxymethyl)-1-(pyridin-2-ylmethyl)pyrrolidin-2-yl)methyl)acetamide]		3020

Other lines, results leading:

Papp at 3 h, 1 μM [1] [×10⁻⁶ cm/s]	Ki (human O-GlcNAcase) [nM]	SMILES
	4560	CC(=O)NC[C@@H]1[C@@H](O)[C@H](O)[C@@H](CO)N1Cc1ccc(-c2ccccc2)cc1 [Example 9, N-(((2R,3R,4R,5R)-1-([1,1′-biphenyl]-4-ylmethyl)-3,4-dihydroxy-5-(hydroxymethyl)pyrrolidin-2-yl)methyl)acetamide]
	108	CC(=O)NC[C@H]1N[C@H](CO)[C@@H](O)[C@@H]1O [reference compound]
	1030	CCCCN1C(CNC(C)=O)[C@@H](O)[C@H](O)[C@H]1CO (stereo partly drawn) [reference compound]
	55	CNC(=O)C[C@@H]1[C@@H](O)[C@H](O)[C@@H](CO)N1CCCc1ccccc1 [Example 10, 2-((2R,3R,4R,5R)-3,4-dihydroxy-5-(hydroxymethyl)-1-(3-phenylpropyl)pyrrolidin-2-yl)-N-methylacetamide]
	132	CCNC(=O)C[C@@H]1[C@@H](O)[C@H](O)[C@@H](CO)N1CCCc1ccc(OC)cc1 [Example 11, 2-((2R,3R,4R,5R)-3,4-dihydroxy-5-(hydroxymethyl)-1-(3-(4-methoxyphenyl)propyl)pyrrolidin-2-yl)-N-ethylacetamide]
	343	CC(=O)NCC1[C@@H](O)[C@H](O)[C@@H](CO)N1CCc1ccccc1 (stereo partly drawn) [reference compound]
	8.3	CNC(=O)C[C@@H]1[C@H](O)[C@H](O)[C@@H](CO)N1CCCc1ccccc1 [Example 13, 2-((2R,3S,4R,5R)-3,4-dihydroxy-5-(hydroxymethyl)-1-(3-phenylpropyl)pyrrolidin-2-yl)-N-methylacetamide]
< 1.6	619	CCCCCCN1C(CNC(C)=O)[C@@H](O)[C@H](O)[C@H]1CO (stereo partly drawn) [reference compound]
	2020	CCCN1C(CNC(C)=O)[C@@H](O)[C@H](O)[C@H]1CO (stereo partly drawn) [reference compound]
	60	CCNC(=O)C[C@@H]1[C@@H](O)[C@H](O)[C@@H](CO)N1CCC(c1ccccc1)c1ccccc1 [Example 12, 2-((2R,3R,4R,5R)-1-(3,3-diphenylpropyl)-3,4-dihydroxy-5-(hydroxymethyl)pyrrolidin-2-yl)-N-ethylacetamide]
